The test system of one data set is Escherichia coli JM103. In kind it is cell-based. The method, then: The anti-microbial effect of the Magainin(Leu21, Ser23, Arg24) was conducted according to the following procedures, with the comparison of that of the naturally occurring Magainin.
The bacterial strain of Escherichia coli JM103 and staphylococcus aureus were employed.
The bacteria were cultivated at 37° centigrade, and diluted to 1×10^6 bacteria/ml. 20 mM of the sterilized Tris-HCl buffer (pH6.5) was added. Then the Magainin derivative and the naturally occurring Magainin II with various concentrations were added respectively, and incubated at 37° centigrade for different time, 50 μl of the cultures was taken and spread on an agar plate, and incubated at 37° centigrade overnight. The remaining bacteria colonies were accounted for, and the percent of the killed bacteria was calculated.
The ant-microbial effects of Magainin (Leu21, Ser23, Arg24) were tested with comparison with that of the naturally occurring Magainin II. […] The anti-microbial effect of Magainin (Leu21, Ser23, Arg24) on Staphylococcus aureus can be seen from table 4, and the result of time-kill study of Magainin (Leu21, Ser23, Arg24) was shown in FIG. 1.

The next data set concerns mice of Kun-ming species. Kind of data set: Acute toxicity test. In kind it is in vivo. The conditions noted are these: one week observation; for Livability: mice. The method, then:
Six mice of Kun-ming species were divided into three groups randomly. Mice in the first group were intraperitoneally injected with 100 μg Magainin (Leu21, Ser23, Arg24) which is prepared by the method described in example 1, Mice in the second group were injected with 200 μg Magainin (Leu21, Ser23, Arg24), while those in the third group were injected with 1000 μg Magainin (Leu21, Ser23, Arg24). The toxicity of Magainin (Leu21, Ser23, Arg24) was determined by observing the influence of injection to the survival of the mice.

Data set [1] deals with erythrocytes (blood derived from SD rat). Kind of data set: Hemolysis test. The format is cell-based. The method, then: 3 ml of 0.9% sodium chloride solution was added into three tubes separately, followed by addition of 100 μl blood derived from SD rat (provided by Shanghai Laboratory Animal Center, Chinese Academic Sciences) respectively.
As a negative control, the naturally occurring Magainin peptide (obtained from Sigma) was dissolved in sterile water, and the Magainin peptide solution with a concentration of 1 mg/ml was prepared. 300 μl, 1.5 ml and 3 ml of such solution were added into three tubes respectively. After incubation at room temperature for 30 minutes, centrifugation was conducted at 3000 rpm, and supernates in three tubes was taken to determine the optical density at 590 nm with a spectrophotometer.
In the testing group, Hemolysis effect of the Magainin (Leu21, Ser23, Arg24) was examined. Magainin (Leu21, Ser23, Arg24) peptide was dissolved in sterile water to prepare the solution with a concentration of 1 mg/ml, 300 μl, 1.5 ml and 3 m of the solution were added into three tubes respectively, and the hemolysis test was conducted using the same method as applied to the negative control group.
In the positive control group, 0.1% of Triton X-100 (obtained from Sigma Aldrich) was employed aid the hemolysis test was performed according to the steps prescribed above.
In this test, erythrocyte will be precipitated after centrifigation and supernate appear red in the circumstance hemolysis has occurred.

From patent US7232800B2, “Derivatives of magainin and methods of production thereof” (priority 2001, dated 2007) come the findings set out here.

Like-named read-outs stand apart in the source and are kept apart here. Where no end group is shown, it is not given here.

As to “GIGKFLHSAKKFGKAFVGEILNSR [Magainin (Leu21, Ser23, Arg24)]”, the Bacteria killed % is reported as 71.3% in the data set on Escherichia coli JM103 (10 μg/ml, 3 hr); 44.2% in the data set with Escherichia coli JM103 (10 μg/ml, 4 hr); 97.8% in the data set on Escherichia coli JM103 (20 μg/ml, 3 hr); 99.1% in the data set on Escherichia coli JM103 (20 μg/ml, 4 hr). For the same substance, the Livability with mice of Kun-ming species (100 μg intraperitoneal injection), in the data set on mice of Kun-ming species (200 μg intraperitoneal injection) and in the data set on mice of Kun-ming species (1000 μg intraperitoneal injection) was 100% throughout. Further, the “survival of the mice (in words)” value with mice of Kun-ming species (100, 200 and 1000 μg intraperitoneal) was “all survived”.
Consider “GIGKFLHSAKKFGKAFVGEIMNS [Naturally occurring Magainin, Magainin II]”, for which the Hemolysis % in data set [1] (100 μg/ml, 30 minutes room temperature) was 0%; in data set [1] (500 μg/ml, 30 minutes room temperature), 0%; in data set [1] (1000 μg/ml, 30 minutes room temperature), 1.9%. For the same substance, the Bacteria killed % amounted to 75.4% with Escherichia coli JM103 (10 μg/ml, 3 hr); 84.9% with Escherichia coli JM103 (10 μg/ml, 4 hr); 97.5% in the data set with Escherichia coli JM103 (20 μg/ml, 3 hr); 99.2% in the data set with Escherichia coli JM103 (20 μg/ml, 4 hr).
Turning to Triton X-100 [Tritonx-100], the Hemolysis % in data set [1] (0.1%, positive control) stood at 100%.
